Assay results from ChEMBL document CHEMBL2016457, “Discovery of potent and orally bioavailable 17β-hydroxysteroid dehydrogenase type 3 inhibitors” (Bioorg Med Chem, 2012).
Active and inactive are the calls of the source. No rule for the calls is given here.

Assays:
[1] = target: T1, Glucocorticoid receptor (Homo sapiens) (UniProt P04150); assay: Antagonist activity at human GR receptor expressed in human HeLa cells assessed as inhibition of DHT-induced response after 40 hrs by luciferase/beta-galactosidase-based reporter gene assay; format: functional, cell-based
T1 sequence (whole entry): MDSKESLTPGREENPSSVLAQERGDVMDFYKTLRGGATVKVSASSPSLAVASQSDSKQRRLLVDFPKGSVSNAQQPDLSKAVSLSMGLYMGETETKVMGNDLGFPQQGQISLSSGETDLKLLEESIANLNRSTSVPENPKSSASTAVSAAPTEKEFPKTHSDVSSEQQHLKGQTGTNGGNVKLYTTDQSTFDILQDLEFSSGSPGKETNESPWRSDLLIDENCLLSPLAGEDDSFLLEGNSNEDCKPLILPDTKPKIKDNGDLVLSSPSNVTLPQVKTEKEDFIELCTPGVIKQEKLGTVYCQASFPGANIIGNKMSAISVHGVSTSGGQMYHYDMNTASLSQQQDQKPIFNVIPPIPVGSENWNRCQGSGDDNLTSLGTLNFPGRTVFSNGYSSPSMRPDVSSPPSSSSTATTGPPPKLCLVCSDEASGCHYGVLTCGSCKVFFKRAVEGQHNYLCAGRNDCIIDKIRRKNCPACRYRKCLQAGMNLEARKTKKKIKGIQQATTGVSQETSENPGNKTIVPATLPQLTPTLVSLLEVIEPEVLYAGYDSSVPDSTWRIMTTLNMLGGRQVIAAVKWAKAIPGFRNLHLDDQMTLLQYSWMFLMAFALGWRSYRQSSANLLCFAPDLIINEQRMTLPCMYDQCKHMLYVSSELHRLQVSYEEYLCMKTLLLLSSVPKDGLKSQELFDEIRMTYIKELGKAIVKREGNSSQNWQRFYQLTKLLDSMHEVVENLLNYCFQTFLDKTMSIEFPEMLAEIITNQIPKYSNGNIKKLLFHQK

[2] = target: T2, Estrogen receptor (Homo sapiens) (UniProt P03372); assay: Antagonist activity at human ERalpha receptor expressed in human HeLa cells assessed as inhibition of DHT-induced response after 40 hrs by luciferase/beta-galactosidase-based reporter gene assay; format: functional, cell-based
T2 sequence (whole entry): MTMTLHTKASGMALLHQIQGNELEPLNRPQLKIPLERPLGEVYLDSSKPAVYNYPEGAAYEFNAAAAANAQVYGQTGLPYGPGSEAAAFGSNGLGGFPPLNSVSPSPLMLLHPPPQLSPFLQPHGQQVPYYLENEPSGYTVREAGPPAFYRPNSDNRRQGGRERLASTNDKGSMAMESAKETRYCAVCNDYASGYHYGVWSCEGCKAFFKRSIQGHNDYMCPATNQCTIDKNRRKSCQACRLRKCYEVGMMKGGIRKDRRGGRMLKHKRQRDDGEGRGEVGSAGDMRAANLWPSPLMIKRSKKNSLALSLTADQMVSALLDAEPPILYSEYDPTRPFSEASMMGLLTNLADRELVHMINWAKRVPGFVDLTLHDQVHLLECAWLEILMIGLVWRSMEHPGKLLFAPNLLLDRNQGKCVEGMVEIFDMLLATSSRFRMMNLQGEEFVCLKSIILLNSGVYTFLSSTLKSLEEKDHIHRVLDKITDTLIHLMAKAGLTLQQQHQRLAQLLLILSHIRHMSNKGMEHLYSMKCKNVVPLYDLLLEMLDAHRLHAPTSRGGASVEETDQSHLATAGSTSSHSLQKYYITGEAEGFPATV

[3] = target: T3, 17-beta-hydroxysteroid dehydrogenase type 2 (Homo sapiens) (UniProt P37059); assay: Inhibition of human recombinant 17-beta-HSD2 expressed in human HeLa cells using estradiol as substrate preincubated for 30 mins prior substrate addition measured after 120 mins by spectrophotometry; format: cell-based
T3 sequence (whole entry): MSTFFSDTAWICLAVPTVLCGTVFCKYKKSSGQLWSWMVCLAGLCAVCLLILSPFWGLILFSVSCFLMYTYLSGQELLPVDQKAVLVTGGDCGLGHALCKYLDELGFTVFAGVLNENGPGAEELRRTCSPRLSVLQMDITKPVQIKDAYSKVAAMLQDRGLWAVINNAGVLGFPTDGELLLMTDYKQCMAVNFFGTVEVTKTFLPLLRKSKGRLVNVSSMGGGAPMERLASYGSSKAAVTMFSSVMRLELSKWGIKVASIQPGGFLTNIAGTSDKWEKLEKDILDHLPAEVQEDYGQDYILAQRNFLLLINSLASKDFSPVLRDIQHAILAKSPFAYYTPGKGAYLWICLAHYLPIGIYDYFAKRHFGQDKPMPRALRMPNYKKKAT

[4] = target: T4, Androgen receptor (Homo sapiens) (UniProt P10275); assay: Agonist activity at human androgen receptor expressed in human HeLa cells assessed as DHT-induced response after 40 hrs by luciferase/beta-galactosidase-based reporter gene assay; format: functional, cell-based
T4 sequence (whole entry): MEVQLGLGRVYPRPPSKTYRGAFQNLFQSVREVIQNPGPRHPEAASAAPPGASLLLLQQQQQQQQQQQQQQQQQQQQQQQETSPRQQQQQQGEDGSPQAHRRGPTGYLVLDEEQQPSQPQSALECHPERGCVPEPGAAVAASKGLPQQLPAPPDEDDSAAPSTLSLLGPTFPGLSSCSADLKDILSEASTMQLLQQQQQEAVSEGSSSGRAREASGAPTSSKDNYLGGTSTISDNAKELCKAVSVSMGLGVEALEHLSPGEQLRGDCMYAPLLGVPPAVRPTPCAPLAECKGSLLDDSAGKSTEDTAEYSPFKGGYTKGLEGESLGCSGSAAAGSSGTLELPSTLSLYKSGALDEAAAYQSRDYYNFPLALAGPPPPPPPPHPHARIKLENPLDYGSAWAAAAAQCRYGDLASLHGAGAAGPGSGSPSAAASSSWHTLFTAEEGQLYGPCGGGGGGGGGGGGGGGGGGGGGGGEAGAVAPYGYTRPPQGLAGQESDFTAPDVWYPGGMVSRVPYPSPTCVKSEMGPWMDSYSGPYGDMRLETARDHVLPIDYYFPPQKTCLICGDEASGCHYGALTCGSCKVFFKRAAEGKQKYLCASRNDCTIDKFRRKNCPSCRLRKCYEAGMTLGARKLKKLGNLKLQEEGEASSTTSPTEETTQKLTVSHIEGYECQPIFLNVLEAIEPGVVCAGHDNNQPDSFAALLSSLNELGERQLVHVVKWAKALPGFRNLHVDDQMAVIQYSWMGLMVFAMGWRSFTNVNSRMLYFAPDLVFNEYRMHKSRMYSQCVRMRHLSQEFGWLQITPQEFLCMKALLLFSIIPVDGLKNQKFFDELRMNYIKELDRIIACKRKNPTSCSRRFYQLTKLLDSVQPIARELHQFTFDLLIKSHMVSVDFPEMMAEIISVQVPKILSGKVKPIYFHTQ

[5] = target: T5, 17-beta-hydroxysteroid dehydrogenase type 1 (Homo sapiens) (UniProt P14061); assay: Inhibition of human recombinant 17-beta-HSD1 expressed in human HeLa cells using estrone as substrate preincubated for 30 mins prior substrate addition measured after 120 mins by spectrophotometry; format: cell-based
T5 sequence (whole entry): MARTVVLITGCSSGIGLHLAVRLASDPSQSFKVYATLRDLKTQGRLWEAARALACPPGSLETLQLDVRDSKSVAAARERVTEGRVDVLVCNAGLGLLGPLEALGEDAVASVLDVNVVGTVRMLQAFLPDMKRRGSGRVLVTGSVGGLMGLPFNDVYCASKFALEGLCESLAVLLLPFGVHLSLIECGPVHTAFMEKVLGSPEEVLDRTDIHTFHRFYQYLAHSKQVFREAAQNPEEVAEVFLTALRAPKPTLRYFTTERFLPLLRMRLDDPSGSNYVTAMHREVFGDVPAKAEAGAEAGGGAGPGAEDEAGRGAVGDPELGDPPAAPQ

[6] = target: T6, 17-beta-hydroxysteroid dehydrogenase type 3 (Homo sapiens, UniProt P37058)
T6 sequence (P37058 whole entry): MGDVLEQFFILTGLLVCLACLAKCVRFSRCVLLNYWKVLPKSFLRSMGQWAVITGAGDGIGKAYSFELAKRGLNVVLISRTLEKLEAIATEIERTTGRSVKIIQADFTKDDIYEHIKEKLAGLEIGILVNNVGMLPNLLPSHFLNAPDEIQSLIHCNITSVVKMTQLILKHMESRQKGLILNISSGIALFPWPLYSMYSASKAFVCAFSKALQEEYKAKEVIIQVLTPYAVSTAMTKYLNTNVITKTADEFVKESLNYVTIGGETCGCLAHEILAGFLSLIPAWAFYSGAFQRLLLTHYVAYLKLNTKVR
Description: Inhibition of human recombinant 17-beta-HSD3 expressed in human HeLa cells using androstenedione as substrate preincubated for 30 mins prior substrate addition measured after 120 mins by spectrophotometry

[7] = target: T1, Glucocorticoid receptor (Homo sapiens); assay: Agonist activity at human Glucocorticoid receptor expressed in human HeLa cells assessed as DHT-induced response after 40 hrs by luciferase/beta-galactosidase-based reporter gene assay; format: functional, cell-based
[8] = target: T4, Androgen receptor (Homo sapiens); assay: Antagonist activity at human androgen receptor expressed in human HeLa cells assessed as inhibition of DHT-induced response after 40 hrs by luciferase/beta-galactosidase-based reporter gene assay; format: functional, cell-based
[9] = target: T2, Estrogen receptor (Homo sapiens); assay: Agonist activity at human Estrogen receptor ERalpha expressed in human HeLa cells assessed as DHT-induced response after 40 hrs by luciferase/beta-galactosidase-based reporter gene assay; format: functional, cell-based

Row | Structure (SMILES) | Activity [1] | Activity [2] | inhibition [3] | Activity [4] | inhibition [5] | IC50 [6] [nM] | Activity [7] | Activity [8] | Activity [9]
1 | CN(C)C(=O)c1ccc(N2C(=O)O/C(=C\c3ccc(O)c(Br)c3)C2=O)cc1 | inactive | inactive | inactive | inactive | inactive | 65 | inactive | inactive | inactive
2 | O=C1/C(=C/c2ccc(O)c(Br)c2)OC(=S)N1c1ccc(F)cc1 | inactive | inactive | inactive | inactive | inactive | 2 | inactive | inactive | inactive
3 | COc1ccc(N2C(=O)/C(=C/c3ccc(O)cc3Cl)OC2=S)cc1 | inactive | inactive | inactive | inactive | inactive | 5 | inactive | inactive | inactive
4 | COc1ccc(N2C(=O)C(Cc3ccc(O)c(Br)c3)SC2=S)cc1 (centres undefined) | inactive | inactive | inactive | inactive | inactive | 90 | inactive | inactive | inactive
5 | N#Cc1ccc(N2C(=O)/C(=C/c3ccc(O)c(Br)c3)OC2=S)cc1 | inactive | inactive | inactive | inactive | inactive | 19 | inactive | inactive | inactive
6 | O=C1O/C(=C\c2ccc(O)c(Br)c2)C(=O)N1c1cccnc1 | inactive | inactive | inactive | inactive | inactive | 22 | inactive | inactive | inactive
7 | Cc1ccc(N2C(=O)O/C(=C\c3ccc(O)c(Br)c3)C2=O)cn1 | inactive | inactive | inactive | inactive | inactive | 67 | inactive | inactive | inactive
8 | CN1C(=O)/C(=C/c2ccc(O)c(Br)c2)SC1=S | inactive | inactive | inactive | inactive | inactive | 890 | inactive | inactive | inactive
9 | O=C1O/C(=C\c2ccc(O)c(Br)c2)C(=O)N1c1ccccn1 | inactive | inactive | inactive | inactive | inactive | 74 | inactive | inactive | inactive
10 | CN(C)c1ccc(N2C(=O)O/C(=C\c3ccc(O)c(Br)c3)C2=O)cn1 | inactive | inactive | inactive | inactive | inactive | 4 | inactive | inactive | inactive
11 | O=C1/C(=C/c2ccc(O)c(Br)c2)OC(=S)N1c1ccc(C(F)(F)F)cc1 | inactive | inactive | inactive | inactive | inactive | 3 | inactive | inactive | inactive
